The source of these data is patent US20260258032A1, “TYROSINE KINASE 2 INHIBITORS AND USES THEREOF” (BIOGEN MA INC., priority 2022, published 2026).

Each structure is given as a SMILES string. Where a name gives a salt, the structure may show the parent alone.

One assay concerns the target T1, JH2 domain of human Tyk2 (Homo sapiens, UniProt P29597).
T1 construct: 10×His-tagged TYK2 JH2 domain (amino acid 575-876)
The assay is described as follows: JH2 biochemical assay (TR-FRET probe displacement). The class given is binding. Put shortly: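 A probe-displacement TR-FRET readout: compounds, tested in 3-fold, 10-point dilutions starting at […], compete with 2 nM tracer for 2 nM His-tagged JH2 (residues 575-876) detected by 0.1 nM Tb-anti-His over 60 min. IC50 comes from 4-parameter fits of normalized 520/495 nm ratios.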
For orientation: Time-resolved FRET reads energy transfer from a long-lived donor to a nearby acceptor.

The test system of assay [1] is Tyk2 kinase activity on STAT4. Kind of assay: pSTAT4 cell assay (MSD, NK92 cells). The class given is cell-based. Particulars: compounds 1 hr. Put shortly: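 Cells natively expressing STAT4 and Tyk2 (NK92) are serum-starved to lower background phosphorylation, exposed to compound for 1 hr over a 10-point four-fold series starting at 10 μM, and stimulated with 30 ng/mL IL2 for 15 minutes. Phosphorylation is quantified on MSD with anti-STAT4 antibodies.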

T1 sequence (P29597 575-876): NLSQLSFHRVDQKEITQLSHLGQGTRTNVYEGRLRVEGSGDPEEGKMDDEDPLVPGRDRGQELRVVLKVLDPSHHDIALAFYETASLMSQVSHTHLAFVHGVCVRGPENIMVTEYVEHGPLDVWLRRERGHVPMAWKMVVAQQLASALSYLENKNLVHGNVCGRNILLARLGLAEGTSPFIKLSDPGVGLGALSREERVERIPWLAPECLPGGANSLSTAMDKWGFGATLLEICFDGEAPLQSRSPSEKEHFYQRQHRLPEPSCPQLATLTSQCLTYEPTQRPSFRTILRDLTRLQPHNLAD

For the compound `CC(=O)Nc1cc2c(cn1)C1(CC1)CN2c1cc(Oc2cnn(C)c2)nc(C(C)(F)F)n1` [Example 145, N-(1′-(2-(1,1-difluoroethyl)-6-((1-methyl-1H-pyrazol-4-yl)oxy)pyrimidin-4-yl)-1′,2′-dihydrospiro[cyclopropane-1,3′-pyrrolo[3,2-c]pyridin]-6′-yl)acetamide trifluoroacetate], the IC50 on JH2 domain of human Tyk2 (JH2 biochemical assay) lay within 10 to 100 nM; in assay [1] (stimulated 15 minutes), 100 to 1000 nM.

For `COC1(C)CN(c2nc(C)cc(N3CC4(CC4)c4cnc(NC(C)=O)cc43)n2)C1` [Example 234, N-(1′-(2-(3-methoxy-3-methylazetidin-1-yl)-6-methylpyrimidin-4-yl)-1′,2′-dihydrospiro[cyclopropane-1,3′-pyrrolo[3,2-c]pyridin]-6′-yl)acetamide], the IC50 on JH2 domain of human Tyk2 (JH2 biochemical assay) was in the range of 10 to 100 nM; in assay [1] (stimulated 15 minutes), 100 to 1000 nM.

For the compound `CC(=O)Nc1cc2c(cn1)C1(CC1)CN2c1cc(NCCCF)nc(C(C)(F)F)n1` [Example 164, N-(1′-(2-(1,1-difluoroethyl)-6-((3-fluoropropyl)amino)pyrimidin-4-yl)-1′,2′-dihydrospiro[cyclopropane-1,3′-pyrrolo[3,2-c]pyridin]-6′-yl)acetamide trifluoroacetate], the IC50 at JH2 domain of human Tyk2 (JH2 biochemical assay) was no more than 10 nM; in assay [1] (stimulated 15 minutes), 10 to 100 nM.

Turning to `CC(=O)Nc1cc2c(cn1)C1(CC1)CN2c1cc(C)cc(N2C[C@H]3CNC[C@H]3C2)n1` [Example 209, N-(1′-(6-((3aR,6aS)-hexahydropyrrolo[3,4-c]pyrrol-2(1H)-yl)-4-methylpyridin-2-yl)-1′,2′-dihydrospiro[cyclopropane-1,3′-pyrrolo[3,2-c]pyridin]-6′-yl)acetamide trifluoroacetate], the IC50 on JH2 domain of human Tyk2 (JH2 biochemical assay) was 100 to 1000 nM; in assay [1] (stimulated 15 minutes), no less than 1000 nM.

Take `CC(=O)Nc1cc2c(cn1)C1(CC1)CN2c1cc(C)cc(OCC2CCO2)n1` (stereo not shown) [Example 358, N-(1′-(4-methyl-6-(oxetan-2-ylmethoxy)pyridin-2-yl)-1′,2′-dihydrospiro[cyclopropane-1,3′-pyrrolo[3,2-c]pyridin]-6′-yl)acetamide trifluoroacetate]: the IC50 (at JH2 domain of human Tyk2 (JH2 biochemical assay); in assay [1] (stimulated 15 minutes)) was no less than 1000 nM throughout.

For the compound `CC(=O)Nc1cc2c(cn1)C1(CC1)CN2c1cc(C2CCCO2)nc(C(C)(F)F)n1` (stereo not shown) [Example 26, N-(1′-(2-(1,1-difluoroethyl)-6-(tetrahydrofuran-2-y1)pyrimidin-4-yl)-1′,2′-dihydrospiro[cyclopropane-1,3′-pyrrolo[3,2-c]pyridin]-6′-yl)acetamide], the IC50 at JH2 domain of human Tyk2 (JH2 biochemical assay) was no more than 10 nM; in assay [1] (stimulated 15 minutes) it was 100 to 1000 nM.

For `COCC1CC(Oc2cc(C)cc(N3CC4(CC4)c4cnc(NC(C)=O)cc43)n2)C1` (stereo not shown) [Example 345, N-(1′-(6-(3-(methoxymethyl)cyclobutoxy)-4-methylpyridin-2-yl)-1′,2′-dihydrospiro[cyclopropane-1,3′-pyrrolo[3,2-c]pyridin]-6′-yl)acetamide trifluoroacetate], the results for the IC50 (on JH2 domain of human Tyk2 (JH2 biochemical assay); in assay [1] (stimulated 15 minutes)) were 100 to 1000 nM and no less than 1000 nM, respectively.

With `CC(=O)Nc1cc2c(cn1)C1(CC1)CN2c1cc(C)cc(OCC23CC(C)(CO2)C3)n1` [Example 349, N-(1′-(4-methyl-6-((4-methyl-2-oxabicyclo[2.1.1]hexan-1-yl)methoxy)pyridin-2-yl)-1′,2′-dihydrospiro[cyclopropane-1,3′-pyrrolo[3,2-c]pyridin]-6′-yl)acetamide], the IC50 at JH2 domain of human Tyk2 (JH2 biochemical assay) was 100 to 1000 nM; in assay [1] (stimulated 15 minutes) it was no less than 1000 nM.

Regarding `CC(=O)Nc1cc2c(cn1)C1(CC1)CN2c1cc(C)nc(N2CCC(O)C2)n1` (stereo not shown) [Example 214, N-(1′-(2-(3-hydroxypyrrolidin-1-yl)-6-methylpyrimidin-4-yl)-1′,2′-dihydrospiro[cyclopropane-1,3′-pyrrolo[3,2-c]pyridin]-6′-yl)acetamide], the results for the IC50 (on JH2 domain of human Tyk2 (JH2 biochemical assay); in assay [1] (stimulated 15 minutes)) were 100 to 1000 nM and no less than 1000 nM, respectively.

For `CC(=O)Nc1cc2c(cn1)C1(CC1)CN2c1cc(OCCN(C)C)nc(C(C)(F)F)n1` [Example 140, N-(1′-(2-(1,1-difluoroethyl)-6-(2-(dimethylamino)ethoxy)pyrimidin-4-yl)-1′,2′-dihydrospiro[cyclopropane-1,3′-pyrrolo[3,2-c]pyridin]-6′-yl)acetamide trifluoroacetate], the IC50 at JH2 domain of human Tyk2 (JH2 biochemical assay) was 10 to 100 nM; in assay [1] (stimulated 15 minutes) it was no less than 1000 nM.

On to `CSc1nc(C)cc(N2CC3(CC3)c3cnc(NC(C)=O)cc32)n1` [Example 29, N-(1′-(6-methyl-2-(methylthio)pyrimidin-4-yl)-1′,2′-dihydrospiro[cyclopropane-1,3′-pyrrolo[3,2-c]pyridin]-6′-yl)acetamide], for which the IC50 on JH2 domain of human Tyk2 (JH2 biochemical assay) is no more than 10 nM; in assay [1] (stimulated 15 minutes), 100 to 1000 nM.

For `CCn1ncc(-c2cc(N3CC4(CC4)c4cnc(NC(C)=O)cc43)nc(C(C)(F)F)n2)c1F` [Example 301, N-(1′-(2-(1,1-difluoroethyl)-6-(1-ethyl-5-fluoro-1H-pyrazol-4-yl)pyrimidin-4-yl)-1′,2′-dihydrospiro[cyclopropane-1,3′-pyrrolo[3,2-c]pyridin]-6′-yl)acetamide], the IC50 is no more than 10 nM at JH2 domain of human Tyk2 (JH2 biochemical assay) and 10 to 100 nM in assay [1] (stimulated 15 minutes).

As to `CC(=O)Nc1cc2c(cn1)C1(CC1)CN2c1cc(C)cc(N2CC(C)(C#N)C2)n1` [Example 200, N-(1′-(6-(3-cyano-3-methylazetidin-1-yl)-4-methylpyridin-2-yl)-1′,2′-dihydrospiro[cyclopropane-1,3′-pyrrolo[3,2-c]pyridin]-6′-yl)acetamide], the IC50 was 10 to 100 nM at JH2 domain of human Tyk2 (JH2 biochemical assay) and 100 to 1000 nM in assay [1] (stimulated 15 minutes).

For the compound `CC(=O)Nc1cc2c(cn1)C1(CC1)CN2c1cc(C)cc(OC2CC(C)C2)n1` (stereo not shown) [Example 347, N-(1′-(4-methyl-6-(3-methylcyclobutoxy)pyridin-2-yl)-1′,2′-dihydrospiro[cyclopropane-1,3′-pyrrolo[3,2-c]pyridin]-6′-yl)acetamide trifluoroacetate], the IC50 on JH2 domain of human Tyk2 (JH2 biochemical assay) is 100 to 1000 nM; in assay [1] (stimulated 15 minutes), no less than 1000 nM.

As to `CC(=O)Nc1cc2c(cn1)C1(CC1)CN2c1cc(C)nc(N2CCC(C)(O)C2)n1` (stereo not shown) [Example 236, N-(1′-(2-(3-hydroxy-3-methylpyrrolidin-1-yl)-6-methylpyrimidin-4-yl)-1′,2′-dihydrospiro[cyclopropane-1,3′-pyrrolo[3,2-c]pyridin]-6′-yl)acetamide], the IC50 at JH2 domain of human Tyk2 (JH2 biochemical assay) is 10 to 100 nM; in assay [1] (stimulated 15 minutes) it was no less than 1000 nM.

Regarding `CC(=O)Nc1cc2c(cn1)C1(CC1)CN2c1cc(C)cc(C2(F)CC2)n1` [Example 279, N-(1′-(6-(1-fluorocyclopropyl)-4-methylpyridin-2-yl)-1′,2′-dihydrospiro[cyclopropane-1,3′-pyrrolo[3,2-c]pyridin]-6′-yl)acetamide], the IC50 at JH2 domain of human Tyk2 (JH2 biochemical assay) lay within 10 to 100 nM; in assay [1] (stimulated 15 minutes), 100 to 1000 nM.

In the case of `CC(=O)Nc1cc2c(cn1)C1(CC1)CN2c1cc(C)nc(N2CC(C#N)C2)n1` [Example 216, N-(1′-(2-(3-cyanoazetidin-1-yl)-6-methylpyrimidin-4-yl)-1′,2′-dihydrospiro[cyclopropane-1,3′-pyrrolo[3,2-c]pyridin]-6′-yl)acetamide], the IC50 fell in the range of 10 to 100 nM on JH2 domain of human Tyk2 (JH2 biochemical assay) and 100 to 1000 nM in assay [1] (stimulated 15 minutes).

Consider `CC(=O)Nc1cc2c(cn1)C1(CC1)CN2c1cc(-c2cnn(CCN(C)C)c2)nc(C(C)(F)F)n1` [Example 391, N-(1′-(2-(1,1-difluoroethyl)-6-(1-(2-(dimethylamino)ethyl)-1H-pyrazol-4-yl)pyrimidin-4-yl)-1′,2′-dihydrospiro[cyclopropane-1,3′-pyrrolo[3,2-c]pyridin]-6′-yl)acetamide trifluoroacetate], for which the IC50 on JH2 domain of human Tyk2 (TR-FRET probe displacement, JH2 domain of human Tyk2) was no more than 10 nM; in assay [1] (then stimulated 15 minutes), 10 to 100 nM.

Regarding `COC1CCC(Oc2cc(C)cc(N3CC4(CC4)c4cnc(NC(C)=O)cc43)n2)C1` (stereo not shown) [Example 338, N-(1′-(6-((3-methoxycyclopentyl)oxy)-4-methylpyridin-2-yl)-1′,2′-dihydrospiro[cyclopropane-1,3′-pyrrolo[3,2-c]pyridin]-6′-yl)acetamide trifluoroacetate], the half-maximal inhibitory concentration (IC50) (at JH2 domain of human Tyk2 (JH2 biochemical assay); in assay [1] (stimulated 15 minutes)) was 100 to 1000 nM throughout.

Consider `COCCNc1cc(C)cc(N2CC3(CC3)c3cnc(NC(C)=O)cc32)n1` [Example 191, N-(1′-(6-((2-methoxyethyl)amino)-4-methylpyridin-2-yl)-1′,2′-dihydrospiro[cyclopropane-1,3′-pyrrolo[3,2-c]pyridin]-6′-yl)acetamide], for which the values for the IC50 (at JH2 domain of human Tyk2 (JH2 biochemical assay); in assay [1] (stimulated 15 minutes)) were 100 to 1000 nM and no less than 1000 nM, respectively.

For the compound `CC(=O)Nc1cc2c(cn1)C1(CC1)CN2c1cc(C)nc(-c2ccn(C)n2)n1` [Example 244, N-(1′-(6-methyl-2-(1-methyl-1H-pyrazol-3-yl)pyrimidin-4-yl)-1′,2′-dihydrospiro[cyclopropane-1,3′-pyrrolo[3,2-c]pyridin]-6′-yl)acetamide trifluoroacetate], the IC50 at JH2 domain of human Tyk2 (JH2 biochemical assay) is 10 to 100 nM; in assay [1] (stimulated 15 minutes), no less than 1000 nM.

In the case of `COCCOc1cc(C)cc(N2CC3(CC3)c3cnc(NC(C)=O)cc32)n1` [Example 357, N-(1′-(6-(2-methoxyethoxy)-4-methylpyridin-2-yl)-1′,2′-dihydrospiro[cyclopropane-1,3′-pyrrolo[3,2-c]pyridin]-6′-yl)acetamide trifluoroacetate], the IC50 at JH2 domain of human Tyk2 (JH2 biochemical assay) is 10 to 100 nM; in assay [1] (stimulated 15 minutes), no less than 1000 nM.

For `COCCC(=O)Nc1cc2c(cn1)C1(CC1)CN2c1ccnc(C(C)(F)F)n1` [Example 91, N-(1′-(2-(1,1-difluoroethyl)pyrimidin-4-yl)-1′,2′-dihydrospiro[cyclopropane-1,3′-pyrrolo[3,2-c]pyridin]-6′-yl)-3-methoxypropanamide], the IC50 on JH2 domain of human Tyk2 (JH2 biochemical assay) was 10 to 100 nM; in assay [1] (stimulated 15 minutes), no less than 1000 nM.

What is called IC50 is the concentration at which inhibition is half-maximal.
